# Test results reported in patent US6653476B2, “Thienopyridine derivatives, their production and use” (Takeda Chemical Industries, Ltd., priority 2000, dated 2003).
# System: Adjuvant Arthritis in Rats
# Experiment: Effect on adjuvant arthritis in rats (footpad swelling)
# Assay type: in vivo
# Settings: male Lewis rats, 3.13 mg/kg/day orally once daily for 14 days, left footpad edema on Day 14; ** p < 0.01 vs. control
# Procedure: The test compound was suspended in 0.5% methyl cellulose and administered orally once daily for 14 days to male Lewis rats (7-week old, Japan Clea), which had been sensitized by the intradermal injection of 0.05 ml Freund's complete adjuvant (0.5% suspension of killed Mycobacterium tuberculosis in liquid paraffin) into the right hind footpad. Immediately before the sensitization (Day 0) and on 14 days after the administration (Day 14), the volume of the edema on the left footpad was measured by using a plethysmometer (manufactured by Ugo Basile Company, Italy) and the suppression rate (%) of footpad swelling relative to the unsensitized rats was calculated according to the following equation.
# Suppression rate of footpad swelling (%)={1-[(volume of footpad edema in the treatment group)−(volume of footpad edema in the unsensitized group)]/[(volume of footpad edema in the non-treatment group)−(volume of footpad edema in the unsensitized group)]}×100
# The results were expressed by the mean±S.E. in each group (n=6) and tested by Dunnet's comparison with a significance level of 5%.
row,Compound,Suppression rate of footpad swelling (%)
1,"3-chloro-2-[(2,5-dioxopyrrolidin-1-yl)methyl]-5,6,7,8-tetrahydro-7-oxo-4-(4-methoxyphenyl)[1]-benzothieno[2,3-b]pyridine ethylene ketal [Example 13]",77** %
2,"COc1ccc(-c2c(Cl)c(CN3C(=O)CCC3=O)nc3sc4c(c23)CC[S+]([O-])C4)cc1 (centres unmarked) [Example 22, 1-{[3-Chloro-4-(4-methoxyphenyl)-7-oxido-5,8-dihydro-6H-thiopyrano[4′,3′:4,5]thieno[2,3-b]pyridin-2-yl]methyl}-2,5-pyrrolidinedione]",88** %

# System: not given
# Experiment: not given
# Settings: not given
row,melting point,Compound
1,215 to 216 °C,"CCOC(=O)COc1ccc(-c2c(Cl)c(CN3C(=O)CCC3=O)nc3sc4c(c23)CCS(=O)(=O)C4)cc1 [Example 110, ethyl (4-{3-chloro-2-[(2,5-dioxo-1-pyrrolidinyl)methyl]-7,7-dioxidO-5,8-dihydro-6H-thiopyrano[4′,3′:4,5]thieno[2,3-b]pyridin-4-yl}phenoxy)acetate]"
2,191 to 192 °C,"CC(C)(C)OC(=O)COc1ccc(-c2c(Cl)c(CN3C(=O)CCC3=O)nc3sc4c(c23)CCSC4)cc1 [Example 112, tert-butyl (4-{3-chloro-2-[(2,5-dioxo-1-pyrrolidinyl)methyl]-5,8-dihydro-6H-thiopyrano[4′,3′:4,5]-thieno[2,3-b]pyridin-4-yl}phenoxy)acetate]"
3,175 to 176 °C,"CC(C)(C)OC(=O)COc1ccc(-c2c(Cl)c(CN3C(=O)CCC3=O)nc3sc4c(c23)CC[S+]([O-])C4)cc1 (centres unmarked) [Example 113, tert-butyl (4-{3-chloro-2-[(2,5-dioxo-1-pyrrolidinyl)methyl]-7-oxido-5,8-dihydro-6H-thiopyrano[4′,3′:4,5]thieno(2,3-b]pyridin-4-yl}phenoxy)-acetate]"
4,204 to 205 °C,"CC(C)(C)OC(=O)COc1ccc(-c2c(Cl)c(CN3C(=O)CCC3=O)nc3sc4c(c23)CCS(=O)(=O)C4)cc1 [Example 114, tert-butyl (4-{3-chloro-2-[(2,5-dioxo-1-pyrrolidinyl)methyl]-7,7-dioxido-5,8-dihydro-6H-thiopyrano[4′,3′:4,5]thieno[2,3-b]pyridin-4-yl}phenoxy)acetate]"
5,205 to 206 °C,"O=C(O)COc1ccc(-c2c(Cl)c(CN3C(=O)CCC3=O)nc3sc4c(c23)CC[S+]([O-])C4)cc1 (centres unmarked) [Example 115, (4-{3-chloro-2-[(2,5-dioxo-1-pyrrolidinyl)methyl]-7-oxido-5,8-dihydro-6H-thiopyrano[4′,3′:4,5]thieno[2,3-b]pyridin-4-yl}phenoxy)acetic acid]"
6,260 to 261 °C,"O=C(O)COc1ccc(-c2c(Cl)c(CN3C(=O)CCC3=O)nc3sc4c(c23)CCS(=O)(=O)C4)cc1 [Example 116, (4-{3-chloro-2-[(2,5-dioxo-1-pyrrolidinyl)methyl]-7,7-dioxido-5,8-dihydro-6H-thiopyrano-[4′,3′:4,5]-thieno[2,3-b]pyridin-4-yl}phenoxy)acetic acid]"

# Continued, compound first:
row,Compound,melting point
1,CN(C)CC(=O)Oc1ccc(-c2c(Cl)c(CN3C(=O)CCC3=O)nc3sc4c(c23)CCS(=O)(=O)C4)cc1.Cl,199 to 200 °C
2,"COc1ccc(-c2c(Cl)c(CN3C(=O)CCC3=O)nc3sc4c(c23)CC[S+]([O-])C4)cc1 (centres unmarked) [Example 22, 1-{[3-Chloro-4-(4-methoxyphenyl)-7-oxido-5,8-dihydro-6H-thiopyrano[4′,3′:4,5]thieno[2,3-b]pyridin-2-yl]methyl}-2,5-pyrrolidinedione]",268 to 269 °C
3,"COc1ccc(-c2c(Cl)c(CN3C(=O)CCC3=O)nc3sc4c(c23)CC[S@+]([O-])C4)cc1 [Example 46, (S)-1-{[3-chloro-4-(4-methoxyphenyl)-7-oxido-5,8-dihydro-6H-thiopyrano[4′,3′:4,5]thieno[2,3-b]pyridin-2-yl]methyl}-2,5-pyrrolidinedione]",217 to 218.5 °C (dec.)
4,"COc1ccc(-c2c(Cl)c(CN3C(=O)CCC3=O)nc3sc4c(F)c(OC)ccc4c23)cc1 [Example 60, 1-{[3-chloro-8-fluoro-7-methoxy-4-(4-methoxyphenyl)[1]-benzothieno[2,3-b]pyridin-2-yl]methyl}-2,5-pyrrolidinedione]",215 to 216 °C
5,"CC(=O)Oc1ccc(-c2c(Cl)c(CN3C(=O)CCC3=O)nc3sc4c(c23)CCS(=O)(=O)C4)cc1 [Example 64, 4-{3-chloro-2-[(2,5-dioxo-1-pyrrolidinyl)methyl]-7,7-dioxido-5,8-dihydro-6H-thiopyrano[4′,3′:4,5]thieno[2,3-b]pyridin-4-yl}phenylacetate]",272 to 273 °C
6,CCC(=O)Oc1ccc(-c2c(Cl)c(CN3C(=O)CCC3=O)nc3sc4c(c23)CCS(=O)(=O)C4)cc1 [Example 65],268 to 269 °C
